{"source": "patent US20250380696A1", "about": "“METHOD FOR CONTROLLING UNDESIRED PLANTS AND PROMOTING GROWTH OF USEFUL PLANTS” (ISHIHARA SANGYO KAISHA, LTD., priority 2022, published 2025)", "format_in_all_cases": "in vivo", "key": {"[1]": {"tested_on": "horseweed (Conyza canadensis)", "assay": "(14) Herbicidal effect test, pot, spray at diameter of 12 to 17 cm", "conditions": "6th day after spraying", "text": "[formula] • X: growth inhibition rate when treated with α (g/ha) of compound A, • Y: growth inhibition rate when treated with β (g/ha) of compound B, • E: growth inhibition rate expected when treated with α (g/ha) of compound A and β (g/ha) of compound B (expected value).\nUpland soil was put in a 1/1,000,000 hectare pot, and seeds of horseweed (Conyza canadensis) were sown. When the horseweed reached a diameter of 12 to 17 cm, a water-based suspension containing tiafenacil as the active ingredient, prepared by a conventional method for preparing a water-based suspension, and an emulsifiable concentrate containing S-metolachlor as the active ingredient (tradename: Dual Gold, manufactured by Syngenta), a wettable powder containing metribuzin as the active ingredient (tradename: SENCOR wettable powder, manufactured by Bayer Crop Science) or water dispersible granules containing pyroxasulfone as the active ingredient (tradename: Sakura, manufactured by Bayer Crop Science) were diluted with water (in an amount corresponding to 200 liter per hectare) containing 0.5 vol % of an agricultural spreader (tradename: Destiny HC, manufactured by Winfield Solutions, LLC.) and sprayed by a small spray gun (model: W-101-132G, manufactured by ANEST IWATA Corporation). On the 6th day after spraying, the state of growth of the horseweed was visually observed, and the growth inhibition rate (%) was obtained in accordance with the evaluation standards described in the above (1) herbicidal effect test, and the results are shown in Table 14. Further, the expected value of the growth inhibition rate (%) was calculated in accordance with the Colby's formula described in the above (1) herbicidal effect test, and the results are also shown in Table 14."}, "[2]": {"tested_on": "forage corn (cultivar: SNOW DENT OTOHA)", "assay": "(18) Plant growth promotion effect test (corn), Italian ryegrass sown", "conditions": "21st day after the sowing, above-ground part", "text": "Upland soil was put in a 1/1,000,000 hectare pot, and seeds of Italian ryegrass (Lolium multiflorum) were sown. When the Italian ryegrass reached 2.7 to 3.1 leaf stage, a water-based suspension containing tiafenacil as the active ingredient, prepared by a conventional method for preparing a water-based suspension, and an emulsifiable concentrate containing S-metolachlor as the active ingredient (tradename: Dual Gold, manufactured by Syngenta), a wettable powder containing metribuzin as the active ingredient (tradename: SENCOR wettable powder, manufactured by Bayer Crop Science) or water dispersible granules containing pyroxasulfone as the active ingredient (tradename: Sakura, manufactured by Bayer Crop Science) were diluted with water (in an amount corresponding to 200 liter per hectare) containing 0.5 vol % of an agricultural spreader (tradename: Destiny HC, manufactured by Winfield Solutions, LLC.) and sprayed by a small spray gun (model: W-101-132G, manufactured by ANEST IWATA Corporation). Seeds of forage corn (cultivar: SNOW DENT OTOHA, manufactured by SNOW BRAND SEED Co., Ltd.) were sown in the pot after spraying. On the 21st day after the sowing, the above-ground part of the forage corn was reaped, and its weight was measured to obtain the raw weight."}, "[3]": {"tested_on": "soybean (cultivar: Enrei)", "assay": "(23) Plant growth promotion effect test (soybean), Italian ryegrass sown, seed weight", "conditions": "97th day after the sowing", "text": "Upland soil was put in a 1/200,000 hectare pot, and seeds of Italian ryegrass (Lolium multiflorum) were sown. When the Italian ryegrass reached 2.5 to 3.0 leaf stage, a water-based suspension containing tiafenacil as the active ingredient, prepared by a conventional method for preparing a water-based suspension, and an emulsifiable concentrate containing S-metolachlor as the active ingredient (tradename: Dual Gold, manufactured by Syngenta), a wettable powder containing metribuzin as the active ingredient (tradename: SENCOR wettable powder, manufactured by Bayer Crop Science), water dispersible granules containing pyroxasulfone as the active ingredient (tradename: Sakura, manufactured by Bayer Crop Science), a wettable powder containing tri-allate as the active ingredient, prepared by a conventional method for preparing a wettable powder, an emulsifiable concentrate containing pethoxamid as the active ingredient (tradename: Successor 600, manufactured by Stähler Suisse SA) or an emulsifiable concentrate containing dimethenamid-P as the active ingredient (tradename: Fieldstar P emulsifiable concentrate, manufactured by BASF) were diluted with water (in an amount corresponding to 200 liter per hectare) containing 0.5 vol % of an agricultural spreader (tradename: Destiny HC, manufactured by Winfield Solutions, LLC.) and sprayed by a small spray gun (model: W-101-132G, manufactured by ANEST IWATA Corporation). Seeds of soybean (cultivar: Enrei, manufactured by Asahi Noen Seed Co., Ltd.) were sown in the pot after spraying and the soybean was cultivated. On the 97th day after the sowing, seeds were collected from the grown soybean, and their weight was measured to obtain the total weight."}, "[4]": {"tested_on": "soybean (cultivar: Enrei)", "assay": "(24) Plant growth promotion effect test (soybean), undesired plants not sown", "conditions": "48th day after the sowing, above-ground part", "text": "Upland soil was put in a 1/500,000 hectare pot, and a water-based suspension containing tiafenacil as the active ingredient, prepared by a conventional method for preparing a water-based suspension, and an emulsifiable concentrate containing S-metolachlor as the active ingredient (tradename: Dual Gold, manufactured by Syngenta), a wettable powder containing metribuzin as the active ingredient (tradename: SENCOR wettable powder, manufactured by Bayer Crop Science), water dispersible granules containing pyroxasulfone as the active ingredient (tradename: Sakura, manufactured by Bayer Crop Science), a wettable powder containing tri-allate as the active ingredient, prepared by a conventional method for preparing a wettable powder, an emulsifiable concentrate containing pethoxamid as the active ingredient (tradename: Successor 600, manufactured by Stähler Suisse SA) or an emulsifiable concentrate containing dimethenamid-P as the active ingredient (tradename: Fieldstar P emulsifiable concentrate, manufactured by BASF) were diluted with water (in an amount corresponding to 200 liter per hectare) containing 0.5 vol % of an agricultural spreader (tradename: Destiny HC, manufactured by Winfield Solutions, LLC.) and sprayed by a small spray gun (model: W-101-132G, manufactured by ANEST IWATA Corporation). Seeds of soybean (cultivar: Enrei, manufactured by Asahi Noen Seed Co., Ltd.) were sown in the pot after spraying. On the 48th day after the sowing, the above-ground part of the soybean was reaped, and its weight was measured to obtain the total weight."}}, "data": [{"smiles": "CCc1cccc(C)c1N(C(=O)CCl)[C@@H](C)COC", "note": "[S-metolachlor]", "values": [{"measurement": "Growth inhibition rate (%) Measured value", "setting": "[1]; Dose 7.5 g/ha", "value": 0, "unit": "%"}, {"measurement": "Growth inhibition rate (%) Measured value", "setting": "[1]; Dose 375 g/ha", "value": 0, "unit": "%"}, {"measurement": "Growth inhibition rate (%) Measured value", "setting": "[1]; Dose 750 g/ha", "value": 0, "unit": "%"}, {"measurement": "Raw weight (g) of forage corn", "setting": "[2]; Dose 7.5 g/ha", "value": 3.5, "unit": "g"}, {"measurement": "Raw weight (g) of forage corn", "setting": "[2]; Dose 750 g/ha", "value": 3.1, "unit": "g"}, {"measurement": "Total weight (g) of soybean seeds", "setting": "[3]; Dose 750 g/ha", "value": 12.7, "unit": "g"}, {"measurement": "Raw weight (g) of soybean", "setting": "[4]; Dose 75 g/ha", "value": 27.1, "unit": "g"}]}, {"smiles": "COC[C@H](C)N(C(=O)CCl)c1c(C)csc1C", "note": "[dimethenamid-P]", "values": [{"measurement": "Total weight (g) of soybean seeds", "setting": "[3]; Dose 750 g/ha", "value": 14.1, "unit": "g"}, {"measurement": "Raw weight (g) of soybean", "setting": "[4]; Dose 150 g/ha", "value": 28.9, "unit": "g"}]}, {"smiles": "CSc1nnc(C(C)(C)C)c(=O)n1N", "note": "[metribuzin]", "values": [{"measurement": "inhibition at 9.38 g/ha", "setting": "[1]; Erigeron canadensis, Dose 9.38 g/ha, read-out: Growth inhibition rate (%) Measured value", "value": 0, "unit": "%"}, {"measurement": "inhibition at 550 g/ha", "setting": "[1]; Erigeron canadensis, Dose 550 g/ha, read-out: Growth inhibition rate (%) Measured value", "value": 5, "unit": "%"}, {"measurement": "inhibition at 1100 g/ha", "setting": "[1]; Erigeron canadensis, Dose 1100 g/ha, read-out: Growth inhibition rate (%) Measured value", "value": 5, "unit": "%"}, {"measurement": "Raw weight (g) of forage corn", "setting": "[2]; Dose 225 g/ha", "value": 4.7, "unit": "g"}, {"measurement": "Raw weight (g) of forage corn", "setting": "[2]; Dose 550 g/ha", "value": 5.6, "unit": "g"}, {"measurement": "Total weight (g) of soybean seeds", "setting": "[3]; Dose 18.75 g/ha", "value": 14.2, "unit": "g"}, {"measurement": "Raw weight (g) of soybean", "setting": "[4]; Dose 150 g/ha", "value": 16.1, "unit": "g"}]}, {"smiles": "CCOCCN(C(=O)CCl)C(=C(C)C)c1ccccc1", "note": "[pethoxamid]", "values": [{"measurement": "Total weight (g) of soybean seeds", "setting": "[3]; Dose 750 g/ha", "value": 11.0, "unit": "g"}, {"measurement": "Raw weight (g) of soybean", "setting": "[4]; Dose 200 g/ha", "value": 26.7, "unit": "g"}]}, {"smiles": "Cn1nc(C(F)(F)F)c(CS(=O)(=O)C2=NOC(C)(C)C2)c1OC(F)F", "note": "[pyroxasulfone]", "values": [{"measurement": "inhibition at 7.5 g/ha", "setting": "[1]; Erigeron canadensis, Dose 7.5 g/ha, read-out: Growth inhibition rate (%) Measured value", "value": 0, "unit": "%"}, {"measurement": "inhibition at 250 g/ha", "setting": "[1]; Erigeron canadensis, Dose 250 g/ha, read-out: Growth inhibition rate (%) Measured value", "value": 0, "unit": "%"}, {"measurement": "inhibition at 500 g/ha", "setting": "[1]; Erigeron canadensis, Dose 500 g/ha, read-out: Growth inhibition rate (%) Measured value", "value": 0, "unit": "%"}, {"measurement": "Raw weight (g) of forage corn", "setting": "[2]; Dose 7.5 g/ha", "value": 5.8, "unit": "g"}, {"measurement": "Raw weight (g) of forage corn", "setting": "[2]; Dose 125 g/ha", "value": 3.3, "unit": "g"}, {"measurement": "Raw weight (g) of forage corn", "setting": "[2]; Dose 250 g/ha", "value": 3.8, "unit": "g"}, {"measurement": "Total weight (g) of soybean seeds", "setting": "[3]; Dose 125 g/ha", "value": 15.6, "unit": "g"}, {"measurement": "Raw weight (g) of soybean", "setting": "[4]; Dose 37.5 g/ha", "value": 30.0, "unit": "g"}]}, {"smiles": "COC(=O)CCNC(=O)C(C)Sc1cc(-n2c(=O)cc(C(F)(F)F)n(C)c2=O)c(F)cc1Cl", "note": "(centres unmarked) [tiafenacil]", "values": [{"measurement": "Growth inhibition rate (%) Measured value", "setting": "[1]; Dose 6.25 g/ha", "value": 23, "unit": "%"}, {"measurement": "Raw weight (g) of forage corn", "setting": "[2]; Dose 6.25 g/ha", "value": 3.2, "unit": "g"}, {"measurement": "Total weight (g) of soybean seeds", "setting": "[3]; Dose 12.5 g/ha", "value": 14.3, "unit": "g"}, {"measurement": "Raw weight (g) of soybean", "setting": "[4]; Dose 3 g/ha", "value": 28.3, "unit": "g"}]}, {"smiles": "CC(C)N(C(=O)SCC(Cl)=C(Cl)Cl)C(C)C", "note": "[tri-allate]", "values": [{"measurement": "Total weight (g) of soybean seeds", "setting": "[3]; Dose 625 g/ha", "value": 17.0, "unit": "g"}, {"measurement": "Raw weight (g) of soybean", "setting": "[4]; Dose 200 g/ha", "value": 18.2, "unit": "g"}]}]}
